Data: patent US4329295A, “24-Cyclopropylcholene-3β, 22-diols and esters thereof” (G. D. Searle & Co., priority 1981, dated 1982)

Tested on: HMG Co A reductase
Experiment: Reduction of HMG Co A reductase activity in liver microsomes of rats treated with 20,25-diazacholesterol and test compound
Format: in vivo, rat
Settings: male CD rats, test compound given last 3 days with 20,25-diazacholesterol, [14C]-mevalonic acid formation vs control
Procedure: Male rats of the CD strain from Charles River weighing 180-250 g., initially being kept on a regular laboratory diet, are used. The rats are maintained in reverse light-cycle room for 3-6 days. 20,25-Diazacholesterol is administered for a total of 6 days at a dose of 5 mg/kg/day (IG). The last 3 days the test compound is administered along with the 20,25-diazacholesterol. Both compounds are given 2 hours prior to the test on last day. The rats are anesthetized with ether, sacrificed, and the livers removed. Liver microsomes are collected by differential centrifugation after homogenation. Liver microsomes are used as the source of the HMG Co A reductase. Details of the assay are reported in L. W. White and H. Rudney, Biochemistry 9, 2713 (1970); Brown et al., J. Biol. Chem. 248, 4731 (1973); and C. A. Edwards, Biochem. Biophys. Acts 409, 39 (1975). The percent change in formation of [^ 14 C]-mevalonic acid from [^14 C]-HMG Co A is used as a measure of enzyme activity for treated groups versus control groups of rats. If the treated groups have less activity, and the decrease is statistically significant at P≤0.05, the compound is rated active.

## C[C@@H]([C@H]1CC[C@H]2[C@@H]3CC=C4C[C@@H](O)CC[C@]4(C)[C@H]3CC[C@]12C)[C@@H](O)CCC1CC1 [24-cyclopropylchol-5-ene-3β,22S-diol]
0.5 mg/kg (IG)
  inhibition of HMG Co A reductase activity: 32%
5 mg/kg (IG)
  inhibition of HMG Co A reductase activity: 79%
